# Biological target: Dipeptidyl peptidase 4 (Homo sapiens, UniProt P27487)
# Test: In vitro test for inhibitory activity against human dipeptidyl peptidase IV.
# Sequence of Dipeptidyl peptidase 4 (P27487 whole entry): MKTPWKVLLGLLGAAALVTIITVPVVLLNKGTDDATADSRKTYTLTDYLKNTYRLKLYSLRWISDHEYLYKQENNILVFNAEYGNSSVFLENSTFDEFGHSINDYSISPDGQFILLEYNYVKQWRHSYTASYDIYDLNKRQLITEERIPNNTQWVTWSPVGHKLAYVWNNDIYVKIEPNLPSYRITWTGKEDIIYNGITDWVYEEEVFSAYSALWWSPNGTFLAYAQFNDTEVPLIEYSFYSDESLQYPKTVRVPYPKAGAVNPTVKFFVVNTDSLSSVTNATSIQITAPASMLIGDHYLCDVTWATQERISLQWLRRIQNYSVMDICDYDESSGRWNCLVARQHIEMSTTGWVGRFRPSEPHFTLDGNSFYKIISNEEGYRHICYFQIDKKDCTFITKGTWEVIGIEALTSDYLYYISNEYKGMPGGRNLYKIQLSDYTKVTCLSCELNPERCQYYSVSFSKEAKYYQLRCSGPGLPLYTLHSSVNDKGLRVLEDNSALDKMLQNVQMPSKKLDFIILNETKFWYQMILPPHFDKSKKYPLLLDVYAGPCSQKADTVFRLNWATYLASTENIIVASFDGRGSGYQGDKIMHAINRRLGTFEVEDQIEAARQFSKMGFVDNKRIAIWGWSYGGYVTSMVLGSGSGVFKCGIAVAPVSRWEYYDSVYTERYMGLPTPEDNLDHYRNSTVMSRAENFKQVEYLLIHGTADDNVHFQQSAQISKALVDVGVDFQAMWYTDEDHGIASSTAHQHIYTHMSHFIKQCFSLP
row,SMILES,Ki [µM]
1,O=C([C@H](CO)NCc1ccccc1)N1CCCC1,6
2,CNC(C(=O)N1CCCC1)[C@H](C)O (some centres not stated),0.9
3,N[C@@H](CCC(=O)OCc1ccccc1)C(=O)N1CCCC1,2.7
4,CCCC[C@H](N)C(=O)N1CCCC1,1.2
5,C[C@H](N)C(=O)N1CCCC1,7
6,C[C@@H](O)[C@H](N)C(=O)N1CCCC1,4.9
7,N#C[C@@H]1CCCN1C(=O)[C@@H](N)CCCCN,0.0052

# Next, values leading:
row,Ki [µM],SMILES
1,0.21,NC(C(=O)N1CCCC1)C1CCCC1 (configuration not stated)
2,0.88,CC(C)(C)[C@H](N)C(=O)N1CCCC1
3,0.52,NCCCC[C@H](NC(=O)OCc1ccccc1)C(=O)N1CCCC1
4,0.91,NCCC[C@H](NC(=O)OCc1ccccc1)C(=O)N1CCCC1
5,5.3,N[C@H](C(=O)N1CCCC1)c1ccccc1
6,2,N[C@@H](CCC(=O)O)C(=O)N1CCCC1
7,14.5,N[C@@H](CC(=O)O)C(=O)N1CCCC1
8,0.003,O=C([C@@H]1CCCN1)N1CCC[C@H]1B(O)O

# Test system: not listed separately
# Test: Half-life in aqueous solution(pH 7.4).
# Type: ADME
row,SMILES,half-life [h]
1,N#C[C@@H]1CCCN1C(=O)[C@@H](N)C1CCCCC1,> 48
2,CC(C)(C)[C@H](N)C(=O)N1CCC[C@H]1C#N,> 48
3,N#C[C@@H]1CCCN1C(=O)[C@@H](N)CCCCN,24

# Further lines, results first:
row,half-life [h],SMILES
1,48,CC[C@H](C)[C@H](N)C(=O)N1CCC[C@H]1C#N
2,7.5,N#C[C@@H]1CCCN1C(=O)[C@@H]1CCCN1
3,0.5,C[C@H](N)C(=O)N1CCC[C@H]1B(O)O
4,1.5,O=C([C@@H]1CCCN1)N1CCC[C@H]1B(O)O
